Experimental data from patent US10709725B2, “Gemcitabine ProTide hypoxia-activated prodrug and application thereof” (JIANGSU QIANZHIKANG BIOLOGICAL MEDICINE SCIENCE AND …, priority 2016, dated 2020).
≈ marks a conversion by molar mass, not a printed value. Like-named read-outs stand apart in the source and are kept apart here.

What was measured:
Format in all cases: cell-based
[1] = test system: Human liver cancer HepG2 cell; experiment: In-vitro inhibition of tumor cell proliferation (3H-TdR, 72 h), normal oxygen and hypoxic; conditions: HepG2, 72 h
Description: (§1) Take tumor cells in the logarithmic growth phase, add 0.25% pancreatin for digestion for 3 min, use RPMI-1640 containing 10% calf serum for suspension culture of the cells, count the number, adjust cell concentration to 1×10^5 cells/mL, inoculate to a Top-count dedicated 96-well cell culture plate at 100 μL/well, and incubate at 37° C. and 5% CO2 for 24 h; divide the cells into experimental groups and control groups, and add a target compound solution (0.001 μg/mL, 0.01 μg/mL, 0.1 μg/mL, 1 μg/mL, 10 μg/mL) to the experimental groups, wherein each concentration corresponded to four wells, and the volume of each well was made up to 200 μL; after adding samples, continue to culture for 72 h for each group (for hypoxic groups, continue to culture for 72 h at 5% CO2, 95% N2), add ^3H-TdR 3×10^5Bq to each group before culture ended, and measure the CPM (count per minute) value of each well with Top-count; and calculate the median inhibition concentration (IC50) of drugs in each experimental group on cell proliferation.

[2] = test system: Human lung adenocarcinoma cell A549; experiment: as above; conditions: A549, 72 h
Description: as §1

[3] = test system: Human pancreatic adenocarcinoma cell BxPC-3 cell; experiment: as above; set-up: Median inhibition concentration IC50 normal oxygen (air) / Median inhibition concentration IC50 hypoxic (nitrogen): unit not given here; conditions: for IC50: Homo sapiens
tumor cells = experiment: In-vitro inhibition of tumor cell proliferation, hypoxic versus normal oxygen; conditions: in words, see Table 1
Description: as §1

[4] = hypoxic (5% CO2, 95% N2), read-out: Median inhibition concentration IC50 hypoxic (nitrogen)
[5] = normal oxygen (air), read-out: Median inhibition concentration IC50 normal oxygen (air)
[6] = BxPC-3, 72 h, hypoxic (5% CO2, 95% N2), read-out: Median inhibition concentration IC50 hypoxic (nitrogen)
[7] = BxPC-3, 72 h, normal oxygen (air), read-out: Median inhibition concentration IC50 normal oxygen (air)
[8] = BXPC-3, 72 h, hypoxic (5% CO2, 95% N2), read-out: Median inhibition concentration IC50 hypoxic (nitrogen)
[9] = BXPC-3, 72 h, normal oxygen (air), read-out: Median inhibition concentration IC50 normal oxygen (air)
[10] = BxPC-3, 72 h, hypoxic (5% CO2, 95% N2)
[11] = BxPC-3, 72 h, normal oxygen (air)

| SMILES | IC50 [1, 4] [µg/mL] | IC50 [1, 5] [µg/mL] | IC50 [2, 4] [µg/mL] | IC50 [2, 5] [µg/mL] | IC50 [3, 8] [µg/mL] | IC50 [3, 9] [µg/mL] | also measured |
| --- | --- | --- | --- | --- | --- | --- | --- |
| C[C@H](NP(=O)(OC[C@H]1O[C@@H](n2ccc(N)nc2=O)C(F)(F)C1O)Oc1ccccc1)C(=O)OC(C)(C)c1ccc([N+](=O)[O-])cc1 (stereo partly shown) [Compound 002] | 0.2 (≈ 0.306 µM) | > 10 | 0.1 (≈ 0.153 µM) | 2 (≈ 3.06 µM) |  |  | IC50 [3, 6]: 0.4 µg/mL (≈ 0.612 µM); IC50 [3, 7]: > 10 µg/mL |
| CC(OC(=O)[C@H](C)NP(=O)(OC[C@H]1O[C@@H](n2ccc(N)nc2=O)C(F)(F)C1O)Oc1ccccc1)c1cnc([N+](=O)[O-])n1C (stereo partly shown) [Compound 003] | 0.4 (≈ 0.622 µM) | > 10 |  |  |  |  |  |
| CC(OC(=O)[C@H](C)NP(=O)(OC[C@H]1O[C@@H](n2cnc(N)nc2=O)C(F)(F)C1O)Oc1ccccc1)c1ccc([N+](=O)[O-])o1 (stereo partly shown) [Compound 004] |  |  |  |  |  |  | IC50 [3, 6]: 0.4 µg/mL (≈ 0.634 µM); IC50 [3, 7]: > 10 µg/mL |
| CC(OC(=O)[C@H](C)NP(=O)(OC[C@H]1O[C@@H](n2ccc(N)nc2=O)C(F)(F)C1O)Oc1ccccc1)c1ccc([N+](=O)[O-])s1 (stereo partly shown) [Compound 005] |  |  | 0.1 (≈ 0.155 µM) | 2 (≈ 3.1 µM) |  |  |  |
| CC(OP(=O)(N[C@@H](C)C(=O)OCc1ccccc1)OC[C@H]1O[C@@H](n2ccc(N)nc2=O)C(F)(F)C1O)c1ccc([N+](=O)[O-])cc1 (stereo partly shown) [Compound 006] |  |  | 0.2 (≈ 0.306 µM) | 2 (≈ 3.06 µM) | 0.4 (≈ 0.612 µM) | > 10 |  |
| COC(=O)[C@H](C)NP(=O)(OC[C@H]1O[C@@H](n2cnc(N)nc2=O)C(F)(F)C1O)OC(C)c1ccc([N+](=O)[O-])cc1 (stereo partly shown) [Compound 007] | 0.5 (≈ 0.864 µM) | > 10 |  |  | 0.4 (≈ 0.692 µM) | > 10 |  |
| CCOC(=O)[C@H](C)NP(=O)(OC[C@H]1O[C@@H](n2cnc(N)nc2=O)C(F)(F)C1O)OC(C)c1ccc([N+](=O)[O-])cc1 (stereo partly shown) [Compound 008] | 0.3 (≈ 0.506 µM) | > 10 |  |  | 0.4 (≈ 0.675 µM) | > 10 |  |
| CC(C)OC(=O)[C@H](C)NP(=O)(OC[C@H]1O[C@@H](n2cnc(N)nc2=O)C(F)(F)C1O)OC(C)c1ccc([N+](=O)[O-])cc1 (stereo partly shown) [Compound 009] |  |  | 0.2 (≈ 0.33 µM) | 2 (≈ 3.3 µM) | 0.4 (≈ 0.66 µM) | > 10 |  |
| CCCCOC(=O)[C@H](C)NP(=O)(OC[C@H]1O[C@@H](n2cnc(N)nc2=O)C(F)(F)C1O)OC(C)c1ccc([N+](=O)[O-])cc1 (stereo partly shown) [Compound 010] |  |  | 0.2 (≈ 0.322 µM) | 2 (≈ 3.22 µM) |  |  |  |
| CC(OP(=O)(N[C@@H](C)C(=O)OCC(C)(C)C)OC[C@H]1O[C@@H](n2cnc(N)nc2=O)C(F)(F)C1O)c1ccc([N+](=O)[O-])cc1 (stereo partly shown) [Compound 011] |  |  | 0.2 (≈ 0.315 µM) | 2 (≈ 3.15 µM) |  |  |  |
| CC(OP(=O)(N[C@@H](C)C(=O)OC1CCCCC1)OC[C@H]1O[C@@H](n2cnc(N)nc2=O)C(F)(F)C1O)c1ccc([N+](=O)[O-])cc1 (stereo partly shown) [Compound 012] | 0.5 (≈ 0.773 µM) | > 10 |  |  | 0.5 (≈ 0.773 µM) | > 10 |  |
| C[C@H](NP(=O)(OCc1ccc([N+](=O)[O-])s1)OC[C@H]1O[C@@H](n2cnc(N)nc2=O)C(F)(F)C1O)C(=O)OC1CCCCC1 (stereo partly shown) [Compound 013] |  |  |  |  | 0.8 (≈ 1.25 µM) | > 10 |  |
| COC(=O)[C@H](C)NP(=O)(OC[C@H]1O[C@@H](n2cnc(N)nc2=O)C(F)(F)C1O)OC(C)c1ccc([N+](=O)[O-])cc1 (stereo partly shown) [Compound 014] |  |  |  |  |  |  | Median inhibition concentration IC50 hypoxic (nitrogen) [3, 10]: 0.7; Median inhibition concentration IC50 normal oxygen (air) [3, 11]: > 10 |
| C[C@H](NP(=O)(OCc1ccc([N+](=O)[O-])o1)OC[C@H]1O[C@@H](n2ccc(N)nc2=O)C(F)(F)C1O)C(=O)OCc1ccccc1 (stereo partly shown) [Compound 015] |  |  |  |  | 0.5 (≈ 0.794 µM) | > 10 |  |
| CC(C)OC(=O)[C@H](C)NP(=O)(OCc1ccc([N+](=O)[O-])s1)OC[C@H]1O[C@@H](n2cnc(N)nc2=O)C(F)(F)C1O (stereo partly shown) [Compound 016] |  |  |  |  | 0.4 (≈ 0.668 µM) | > 10 |  |
| CCOC(=O)[C@H](C)NP(=O)(OCc1cnc([N+](=O)[O-])n1C)OC[C@H]1O[C@@H](n2cnc(N)nc2=O)C(F)(F)C1O (stereo partly shown) [Compound 017] |  |  |  |  | 0.8 (≈ 1.37 µM) | > 10 |  |
| COc1ccc(COP(=O)(N[C@@H](C)C(=O)OC(C)c2ccc([N+](=O)[O-])o2)OC[C@H]2O[C@@H](n3ccc(N)nc3=O)C(F)(F)C2O)cc1 (stereo partly shown) [Compound 018] |  |  |  |  | 0.5 (≈ 0.742 µM) | > 10 |  |
| Cc1ccccc1COP(=O)(N[C@@H](C)C(=O)OC(C)(C)c1ccc([N+](=O)[O-])s1)OC[C@H]1O[C@@H](n2ccc(N)nc2=O)C(F)(F)C1O (stereo partly shown) [Compound 019] |  |  |  |  | 0.8 (≈ 1.16 µM) | > 10 |  |
| CC(OC(=O)[C@H](C)NP(=O)(OCc1ccc(N(C)C)cc1)OC[C@H]1O[C@@H](n2ccc(N)nc2=O)C(F)(F)C1O)c1ccc([N+](=O)[O-])cc1 (stereo partly shown) [Compound 020] |  |  |  |  | 0.4 (≈ 0.574 µM) | > 10 |  |
| COc1ccccc1COP(=O)(N[C@@H](C)C(=O)OC(C)c1cnc([N+](=O)[O-])n1C)OC[C@H]1O[C@@H](n2ccc(N)nc2=O)C(F)(F)C1O (stereo partly shown) [Compound 021] |  |  |  |  | 0.5 (≈ 0.727 µM) | > 10 |  |
| CC(OC(=O)Nc1ccn([C@@H]2O[C@H](COP(=O)(N[C@@H](C)C(=O)OCc3ccccc3)Oc3ccccc3)C(O)C2(F)F)c(=O)n1)c1ccc([N+](=O)[O-])cc1 (stereo partly shown) [Compound 022] | 0.3 (≈ 0.388 µM) | 0.4 (≈ 0.517 µM) | 0.01 (≈ 0.0129 µM) | 0.01 (≈ 0.0129 µM) |  |  | IC50 ([3]; BXPC-3, 72 h, read-out: Median inhibition concentration IC50 hypoxic (nitrogen)): 0.1 µg/mL (≈ 0.129 µM); IC50 ([3]; BXPC-3, 72 h, read-out: Median inhibition concentration IC50 normal oxygen (air)): 0.1 µg/mL (≈ 0.129 µM); Cytotoxicity under a hypoxic condition compared with that under a normal oxygen condition (tumor cells): not significantly different |
| C[C@H](NP(=O)(OC[C@H]1O[C@@H](n2ccc(N)nc2=O)C(F)(F)C1O)Oc1ccccc1)C(=O)OCc1ccc([N+](=O)[O-])cc1 (stereo partly shown) [Compound 023] | 0.3 (≈ 0.48 µM) | 0.4 (≈ 0.64 µM) | 0.01 (≈ 0.016 µM) | 0.01 (≈ 0.016 µM) |  |  | IC50 [3, 6]: 0.1 µg/mL (≈ 0.16 µM); IC50 [3, 7]: 0.1 µg/mL (≈ 0.16 µM); Cytotoxicity under a hypoxic condition compared with that under a normal oxygen condition (tumor cells): not significantly different |
| C[C@H](NP(=O)(OCc1ccccc1Cl)OC[C@H]1O[C@@H](n2ccc(N)nc2=O)C(F)(F)C1O)C(=O)OC(C)(C)c1ccc([N+](=O)[O-])s1 (stereo partly shown) [Compound 024] |  |  |  |  |  |  | Median inhibition concentration IC50 hypoxic (nitrogen) [3, 10]: >10; Median inhibition concentration IC50 normal oxygen (air) [3, 11]: >10; Cytotoxicity under a hypoxic condition compared with that under a normal oxygen condition (tumor cells): differed slightly |
| Nc1ccn([C@@H]2O[C@H](CO)[C@@H](O)C2(F)F)c(=O)n1 [Gemcitabine] | 0.2 (≈ 0.76 µM) | 0.2 (≈ 0.76 µM) | 0.01 (≈ 0.038 µM) | 0.01 (≈ 0.038 µM) |  |  | IC50 [3, 6]: 0.2 µg/mL (≈ 0.76 µM); IC50 [3, 7]: 0.2 µg/mL (≈ 0.76 µM); Cytotoxicity under a hypoxic condition compared with that under a normal oxygen condition (tumor cells): no significant difference |
| C[C@H](NP(=O)(OC[C@H]1O[C@@H](n2ccc(N)nc2=O)C(F)(F)[C@@H]1O)Oc1ccccc1)C(=O)OCc1ccccc1 (stereo partly shown) [NUC-1031, reference compound] | 0.2 (≈ 0.345 µM) | 0.2 (≈ 0.345 µM) | 0.01 (≈ 0.0172 µM) | 0.01 (≈ 0.0172 µM) |  |  | IC50 [3, 6]: 0.1 µg/mL (≈ 0.172 µM); IC50 [3, 7]: 0.1 µg/mL (≈ 0.172 µM); Cytotoxicity under a hypoxic condition compared with that under a normal oxygen condition (tumor cells): no significant difference |
